Assay results taken from US10501562B2, “Co-initiator and co-monomer for use in preparing polymer related compositions, methods of manufacture, and methods of use” (University of Kansas, priority 2015, dated 2019).

Assays:
[1] = Chemical stability of amine co-initiators by 1H NMR in DMSO-d6/water; format: physicochemical; details: 100 days storage at 25° C., 0.04 M in DMSO-d6/deionized water 80/20 wt/wt
Procedure: The chemical stability of three amine co-initiators (EDMAB, DMAEMA, and TUMA) was characterized by ^1H NMR spectroscopy, which were obtained on a Bruker Advance DRX 500 spectrometer (Bruker AXS Inc., Madison, Wis.) equipped with a broadband probe. Deuterated dimethyl sulfoxide (DMSO-d6)/deionized water (80/20 wt/wt) was used as the solvent. The NMR spectra of 0.04 M amine samples were monitored as a function of storage time at 25° C. The mixed (DMSO/water) solvent was used because of its ability to dissolve EDMAB and TUMA, which are hydrophobic compounds.

[2] = during 24 hours; cited from earlier work

| degraded (chemical stability) [1] | Compound | degradation in the presence of water [2] |
| --- | --- | --- |
| No degradation was detected | CCOC(=O)c1ccc(N(C)C)cc1 [EDMAB, Ethyl-4-(dimethylamino) benzoate] | – |
| No degradation was detected | C=C(C)C(=O)OCCNC(=O)OC(C)CN(CC(C)OC(=O)NCCOC(=O)C(=C)C)CC(C)OC(=O)NCCOC(=O)C(=C)C (stereo not shown) [TUMA, 8-(2-(((2-(methacryloyloxy)ethyl)carbamoyl)oxy)propyl)-6,10-dimethyl-4,12-dioxo-5,11-dioxa-3,8,13-triazapentadecane-1,15-diyl bis(2-methylacrylate)] | – |

| Compound | degraded (chemical stability) [1] | degradation in the presence of water [2] |
| --- | --- | --- |
| C=C(C)C(=O)OCCN(C)C [DMAEMA, 2-(dimethylamino) ethyl methacrylate] | 37.6% | up to 82% |
